For the test, the target named is cortisol synthase (CYP11B1) (Macaca fascicularis, UniProt A0A2K5ULY1). In words: Inhibition of Cortisol Synthesis. In kind it is biochemical, cynomolgus monkey. Particulars: cynomolgus adrenal gland mitochondria; 150 units of CYP11B1, 11-deoxycortisol as substrate, cortisol measured as product. In a few lines: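 Cynomolgus adrenal mitochondria as enzyme source (1 unit = 1 pmol product/h); 150 units CYP11B1 with 11-deoxycortisol substrate in 100 mM potassium phosphate pH 7.4, 1% DMSO, started with 1 mM NADPH, 90 min at 37 °C. Cortisol quantified by mass spectrometry; no-NADPH blank as 0%, no-compound as 100% activity.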
As a reminder, the IC50 is the concentration needed to halve the response being measured. A lower IC50 goes with greater potency in that assay. In turn, `NC(=O)c1cccc2c1OCC(c1cncc(CC(=O)N3CCC(F)(F)CC3)c1)O2` (single isomer, unassigned) [Cpd 30A, 2-{5-[2-(4,4-Difluoro-piperidin-1-yl)-2-oxo-ethyl]-pyridin-3-yl}-2,3-dihydro-benzo[1,4]dioxine-5-carboxylic acid amide] showed an IC50 of 22 µM.

For `Cc1cncc(C2COc3c(cccc3C(N)=O)O2)c1` (single isomer, unassigned) [Cpd 59A, 2-(5-Methyl-pyridin-3-yl)-2,3-dihydro-benzo[1,4]dioxine-5-carboxylic acid amide], the concentration for half-maximal inhibition (IC50) amounted to 1.1 µM. This IC50 is about 20-fold lower than that of the molecule before. The value for `N#Cc1cccc2c1OCC(c1cncc(-c3ccc(S(N)(=O)=O)cc3)c1)O2` (single isomer, unassigned) [Cpd 40A, 4-[5-(5-Cyano-2,3-dihydro-benzo[1,4]dioxin-2-yl)-pyridin-3-yl]-benzenesulfonamide] was over 30 µM; that for `N#Cc1cccc2c1OCC(c1cncc(C3(O)CCOCC3)c1)O2` (single isomer, unassigned) [Cpd 50B, 2-[5-(4-Hydroxy-tetrahydro-pyran-4-yl)-pyridin-3-yl]-2,3-dihydro-benzo[1,4]dioxine-5-carbonitrile] was 3.3 µM.

On to `N#Cc1cccc2c1OCC(c1cncc(CC(=O)N3CC[C@@H](O)C3)c1)O2` (single isomer, unassigned) [Cpd 55B], for which the half-maximal inhibitory concentration (IC50) is over 30 µM. The value for `NC(=O)c1cccc2c1OCC(c1cncc(CO)c1)O2` (single isomer, unassigned) [Cpd 20A, 2-(5-Hydroxymethyl-pyridin-3-yl)-2,3-dihydro-benzo[1,4]dioxine-5-carboxylic acid amide] was 8.2 µM.

`N#Cc1cccc2c1OCC(c1cncc(CN3CCCCS3(=O)=O)c1)O2` (single isomer, unassigned) [Cpd 41A, 2-[5-(1,1-Dioxo-1lambda6-[1,2]thiazinan-2-ylmethyl)-pyridin-3-yl]-2,3-dihydro-benzo[1,4]dioxine-5-carbonitrile] returned an IC50 of 24 µM.

As to `CC(=O)N1CC[C@H](Oc2cncc(C3COc4c(cccc4C(N)=O)O3)c2)C1` (single isomer, unassigned) [Cpd 17B], the IC50 came to 18 µM. The IC50 values of the last two molecules are within 1.5-fold of each other. The value for `N#Cc1cccc2c1OCC(c1cncc(CNC(=O)C(F)(F)F)c1)O2` (stereo not shown) [Cpd 53, N-[5-(5-Cyano-2,3-dihydro-benzo[1,4]dioxin-2-yl)-pyridin-3-ylmethyl]-2,2,2-trifluoro-acetamide] was 24 µM; that for `NC(=O)c1cccc2c1OCC(c1cncc(CNC(=O)C3CC3)c1)O2` (single isomer, unassigned) [Cpd 14A, 2-{5-[(Cyclopropanecarbonyl-amino)-methyl]-pyridin-3-yl}-2,3-dihydro-benzo[1,4]dioxine-5-carboxylic acid amide.] was 12 µM.

In turn, `NC(=O)c1cccc2c1OCC(c1cncc(C(F)(F)F)c1)O2` (single isomer, unassigned) [Cpd 9B, 2-(5-Trifluoromethyl-pyridin-3-yl)-2,3-dihydro-benzo[1,4]dioxine-5-carboxylic acid amide] displayed an IC50 of 2.2 µM. Compared with the last molecule, the IC50 is about 5.5-fold lower.

On to `CN(C)C(=O)COCc1cncc(C2COc3c(cccc3C(N)=O)O2)c1` (single isomer, unassigned) [Cpd 25A, 2-(5-Dimethylcarbamoylmethoxymethyl-pyridin-3-yl)-2,3-dihydro-benzo[1,4]dioxine-5-carboxylic acid amide], for which the half-inhibitory concentration (IC50) is over 100 µM. As to `NC(=O)c1cccc2c1OCC(c1cncc(C3CCOCC3)c1)O2` (single isomer, unassigned) [Cpd 10B, 2-[5-(Tetrahydro-pyran-4-yl)-pyridin-3-yl]-2,3-dihydro-benzo[1,4]dioxine-5-carboxylic acid amide], the 50% inhibitory concentration (IC50) is 0.23 µM. In other words, the sub-micromolar range. Molecule `NC(=O)c1cccc2c1OCC(c1cncc(C(O)C(F)(F)F)c1)O2` (single isomer, unassigned) [Cpd 49AA, 2-[5-(2,2,2-Trifluoro-1-hydroxy-ethyl)-pyridin-3-yl]-2,3-dihydro-benzo[1,4]dioxine-5-carboxylic acid amide] displayed a 50% inhibitory concentration (IC50) of 3.2 µM.

As to `NC(=O)c1cccc2c1OCC(c1cncc(CC(=O)N3CCOCC3)c1)O2` (single isomer, unassigned) [Cpd 13A, 2-[5-(2-Morpholin-4-yl-2-oxo-ethyl)-pyridin-3-yl]-2,3-dihydro-benzo[1,4]dioxine-5-carboxylic acid amide], the IC50 was over 100 µM. Molecule `N#Cc1cccc2c1OCC(c1cncc(CNC(=O)C3CC3)c1)O2` (single isomer, unassigned) [Cpd 39B, Cyclopropanecarboxylic acid [5-(5-cyano-2,3-dihydro-benzo[1,4]dioxin-2-yl)-pyridin-3-ylmethyl]-amide] came in with a 50% inhibitory concentration (IC50) of over 30 µM. The molecule `NC(=O)c1cccc2c1OCC(c1cncc(CN3CCOCC3=O)c1)O2` (single isomer, unassigned) [Cpd 15A, 2-[5-(3-Oxo-morpholin-4-ylmethyl)-pyridin-3-yl]-2,3-dihydro-benzo[1,4]dioxine-5-carboxylic acid amide] yielded an IC50 of 15 µM. Next, `NC(=O)c1cccc2c1OCC(c1cncc3c1CCC3O)O2` (single isomer, unassigned) [Cpd 52AA, 2-(7-Hydroxy-6,7-dihydro-5H-[2]pyrindin-4-yl)-2,3-dihydro-benzo[1,4]dioxine-5-carboxylic acid amide]: 4.1 µM. Next, `CS(=N)(=O)Cc1cncc(C2COc3c(C#N)cccc3O2)c1` (single isomer, unassigned) [Cpd 62AA, 2-(5-{[imino(methyl)oxo-λ^6-sulfanyl]methyl}pyridin-3-yl)-2,3-dihydro-1,4-benzodioxine-5-carbonitrile]: over 30 µM. Next, `C[C@@H](O)c1c(F)cncc1C1COc2c(cccc2C(N)=O)O1` (single isomer, unassigned) [Cpd 57A]: 16 µM; `Cc1ccncc1C1COc2c(cccc2C(N)=O)O1` (single isomer, unassigned) [Cpd 23A, 2-(4-Methyl-pyridin-3-yl)-2,3-dihydro-benzo[1,4]dioxine-5-carboxylic acid amide]: 1.4 µM. Molecule `NC(=O)c1cccc2c1OCC(c1cncc(C3(O)CCOCC3)c1)O2` (single isomer, unassigned) [Cpd 1A, 2-[5-(4-Hydroxy-tetrahydro-pyran-4-yl)-pyridin-3-yl]-2,3-dihydro-benzo[1,4]dioxine-5-carboxylic acid amide] showed an IC50 of over 100 µM. Next, `CN(C)C(=O)COCc1cncc(C2COc3c(cccc3C(N)=O)O2)c1` (single isomer, unassigned) [Cpd 25B, 2-(5-Dimethylcarbamoylmethoxymethyl-pyridin-3-yl)-2,3-dihydro-benzo[1,4]dioxine-5-carboxylic acid amide]: 15 µM. As for `Cc1c(F)cncc1C1COc2c(cccc2C(N)=O)O1` (single isomer, unassigned) [Cpd 21B, 2-(5-Fluoro-4-methyl-pyridin-3-yl)-2,3-dihydro-benzo[1,4]dioxine-5-carboxylic acid amide], the half-inhibitory concentration (IC50) worked out at 5.3 µM.

`NC(=O)c1cccc2c1OCC(c1cncc(-c3ccc(S(N)(=O)=O)cc3)c1)O2` (single isomer, unassigned) [Cpd 16A, 2-[5-(4-Sulfamoyl-phenyl)-pyridin-3-yl]-2,3-dihydro-benzo[1,4]dioxine-5-carboxylic acid amide] showed a concentration for half-maximal inhibition (IC50) of 5.2 µM. This IC50 and that of the molecule before are within 1.5-fold of each other. The value for `CN1C(=O)CCC1c1cncc(C2COc3c(C#N)cccc3O2)c1` (single isomer, unassigned) [Cpd 35A, 2-[5-(1-Methyl-5-oxo-pyrrolidin-2-yl)-pyridin-3-yl]-2,3-dihydro-benzo[1,4] dioxine-5-carbonitrile] was 0.53 µM. Take `NC(=O)c1cccc2c1OCC(c1cccnc1)O2` (single isomer, unassigned) [Cpd 4A, 2-Pyridin-3-yl-2,3-dihydro-benzo[1,4]dioxine-5-carboxylic acid amide]: the IC50 worked out at 3.1 µM. The value for `N#CC1(c2cncc(C3COc4c(cccc4C(N)=O)O3)c2)CC1` (single isomer, unassigned) [Cpd 2B, 2-[5-(1-Cyano-cyclopropyl)-pyridin-3-yl]-2,3-dihydro-benzo[1,4]dioxine-5-carboxylic acid amide] was 0.23 µM; that for `CN1C(=O)CCC1c1cncc(C2COc3c(C#N)cccc3O2)c1` (single isomer, unassigned) [Cpd 35B, 2-[5-(1-Methyl-5-oxo-pyrrolidin-2-yl)-pyridin-3-yl]-2,3-dihydro-benzo[1,4] dioxine-5-carbonitrile] was 6.2 µM; that for `CCS(=O)(=O)NC(c1cncc(C2COc3c(cccc3C(N)=O)O2)c1)C1CC1` (single isomer, unassigned) [Cpd 60AB] was over 30 µM.

Consider `CC(C)C(=O)N1CCC(Oc2cncc(C3COc4c(cccc4C(N)=O)O3)c2)CC1` (single isomer, unassigned) [Cpd 48B, 2-[5-(1-isobutyryl-piperidin-4-yloxy)-pyridin-3-yl]-2,3-dihydro-benzo[1,4]dioxine-5-carboxylic acid amide], for which the IC50 worked out at 0.24 µM. The value for `CC(=O)N1CCC(Oc2cncc(C3COc4c(C#N)cccc4O3)c2)CC1` (single isomer, unassigned) [Cpd 38B, 2-[5-(1-Acetyl-piperidin-4-yloxy)-pyridin-3-yl]-2,3-dihydro-benzo[1,4]dioxine-5-carbonitrile] was 0.7 µM. `CS(=N)(=O)Cc1cncc(C2COc3c(C#N)cccc3O2)c1` (single isomer, unassigned) [Cpd 62BA, 2-(5-{[imino(methyl)oxo-λ^6-sulfanyl]methyl}pyridin-3-yl)-2,3-dihydro-1,4-benzodioxine-5-carbonitrile] gave a half-maximal inhibitory concentration (IC50) of 14 µM. This IC50 lies about 20-fold higher than the previous one.

As for `NC(=O)c1cccc2c1OCC(c1cncc(OC3CCOCC3)c1)O2` (single isomer, unassigned) [Cpd 47B, 2-[5-(Tetrahydro-pyran-4-yloxy)-pyridin-3-yl]-2,3-dihydro-benzo[1,4]dioxine-5-carboxylic acid amide], the IC50 is 1.2 µM.
